Laboratory results taken from paper PMC4659573 (PLoS ONE, 2015).
pIC50: −log10 of the molar value.

Columns and labels:
primary CLL cells = assay: CLL cell apoptosis, Annexin V staining within the CD19+ subset, flow cytometry; assay type: cell-based, human; conditions: for CLL cell apoptosis with selective CDK inhibitors: alone or in combination, data not shown
Text: Following approval by the Committee for Protection of Human Subjects at Dartmouth-Hitchcock Medical Center, the Institutional Review Board at Oregon Health and Science University and written consent of patients, peripheral blood was obtained from patients with B-CLL at the hematology clinics at the above institutions (N = 52). The mean time from CLL diagnosis to entry of study was 5 years; 39 patients (75%) were previously untreated. Isolation of peripheral blood mononuclear cells (PMBCs) was performed using standard Ficoll-Hypaque technique (Amersham, Piscataway, NJ). CLL samples had more than 90% CD5^+/CD19^+ cells, as determined by flow cytometry. CLL cells were cultured in RMPI-1640 medium supplemented with 15% fetal bovine serum, 100 U/mL penicillin, 100 μg/mL streptomycin, 2 mM L-glutamine, 25 mM HEPES, 100 μM non-essential amino acids and 1 mM sodium pyruvate (Lonza, Walkersville, MD). 10 CLL samples with 17p deletion were obtained from the CLL Center at Dana-Farber Cancer Institute. All experiments were performed with freshly isolated cells except the viability assays involving the latter, which were performed with viably frozen cells.
CLL cell apoptosis was measured in duplicates as previously described using the ApoScreen Annexin V Apoptosis Kit. Briefly, cells were resuspended in 150 μl of Annexin V binding buffer containing 1 μl of Annexin V-PE, 1 μl of 7-aminoactinomycin D (7-AAD) and 1 μl of CD19-mAbs (Southern Biotech, Birmingham, AL) followed by flow cytometry on a MACSQuant flow cytometer (Miltenyi Biotec, San Diego, CA). Flow cytometry analysis was performed using FlowJo software (Tree Star, Ashland, OR). P1446A was provided by Piramal Healthcare Ltd. (Mumbai, India). JNK Inhibitor VIII, SP600125, SB203580, ABT-737 and PD0332991 were obtained from Selleck Chemicals (Houston, TX) and CVT-313—from Santa Cruz Biotechnology (Dallas, TX).
Here and subsequently, apoptosis was determined by Annexin V staining within the CD19^+ subset of cells. Horizontal lines represent the mean. […] IC50 value was determined for CLL samples with mutated (N = 13) and unmutated IGHV (N = 10). […] Cytogenetics markers were determined by fluorescent in situ hybridization [no marker, 11q, trisomy 12, 13q, 17p]. Horizontal lines represent the mean. […] Since we noted a significant variation in baseline apoptosis between patient samples, normalization to the time-matched untreated controls was performed to more clearly reflect the drug-induced apoptosis. *- p<0.05 compared to untreated control.

relapsed/refractory CLL = conditions: cited from earlier work
H-460 = system: H-460; design: method as in Piramal Healthcare Ltd., proprietary information; 24; conditions: H-460 xenograft mouse model; ref Piramal Healthcare Ltd., proprietary information; 24; cited from earlier work
CDK1 = molecular target: T1, CDK1 (Homo sapiens, UniProt P06493); assay: biochemical kinase profiling (Kinase 400-Profiler, ProQinase); conditions: S1 Fig
T1 construct: purchased ProQinase, Freiburg, Germany
Method: (§1) Supplementary file pone.0143685.s001.pptx: S1 Fig Determination of selectivity of P1446A-05 was established using biochemical kinase profiling (Kinase 400-Profiler, ProQinase, Freiburg, Germany). IC50 values were determined for the 37 kinases whose activity was inhibited by ≥60% at a drug concentration of 10 μM or less (as shown). […] (PPTX) Click here for additional data file.

CDK5 = molecular target: T2, CDK5 (Homo sapiens, UniProt Q00535); assay: as above; conditions: S1 Fig
T2 construct: purchased ProQinase, Freiburg, Germany
Method: as §1

CDK8 = molecular target: T3, CDK8 (Homo sapiens, UniProt P49336); assay: as above; conditions: S1 Fig
T3 construct: purchased ProQinase, Freiburg, Germany
Method: as §1

CDK6 = molecular target: T4, CDK6 (Homo sapiens, UniProt Q00534); assay: as above; conditions: S1 Fig
T4 construct: purchased ProQinase, Freiburg, Germany
Method: as §1

CDK4 = molecular target: T5, CDK4 (Homo sapiens, UniProt P11802); assay: as above; conditions: S1 Fig
T5 construct: purchased ProQinase, Freiburg, Germany
Method: as §1

CDK2 = molecular target: T6, CDK2 (Homo sapiens, UniProt P24941); assay: as above; conditions: S1 Fig
T6 construct: purchased ProQinase, Freiburg, Germany
Method: as §1

[1] = molecular target: T7, Glycogen synthase 3ß (GSK3ß) (Homo sapiens, UniProt P49841); assay: biochemical kinase profiling (S1 Fig)
T7 construct: purchased ProQinase, Freiburg, Germany
Method: as §1

PIM kinase isoforms = assay: biochemical kinase profiling (S1 Fig)
Method: as §1

[2] = system: kinases (Kinase 400-Profiler panel); assay: kinase selectivity profiling (Kinase 400-Profiler, ProQinase); assay type: biochemical; conditions: at a drug concentration of 10 μM or less
Method: as §1

HCT-116 = system: HCT-116; design: method as in Piramal Healthcare Ltd., proprietary information; 24; conditions: HCT-116 xenograft mouse model; ref Piramal Healthcare Ltd., proprietary information; 24; cited from earlier work

T4 sequence (Q00534 whole entry): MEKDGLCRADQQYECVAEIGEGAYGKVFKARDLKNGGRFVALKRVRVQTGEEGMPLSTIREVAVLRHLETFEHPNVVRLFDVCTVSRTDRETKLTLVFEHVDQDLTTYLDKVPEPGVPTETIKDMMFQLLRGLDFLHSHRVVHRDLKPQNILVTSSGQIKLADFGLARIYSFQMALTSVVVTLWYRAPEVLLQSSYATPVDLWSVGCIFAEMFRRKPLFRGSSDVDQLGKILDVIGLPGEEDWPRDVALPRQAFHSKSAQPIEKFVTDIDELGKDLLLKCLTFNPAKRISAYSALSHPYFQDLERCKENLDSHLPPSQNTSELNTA
T4 sequence (P24385 whole entry partner): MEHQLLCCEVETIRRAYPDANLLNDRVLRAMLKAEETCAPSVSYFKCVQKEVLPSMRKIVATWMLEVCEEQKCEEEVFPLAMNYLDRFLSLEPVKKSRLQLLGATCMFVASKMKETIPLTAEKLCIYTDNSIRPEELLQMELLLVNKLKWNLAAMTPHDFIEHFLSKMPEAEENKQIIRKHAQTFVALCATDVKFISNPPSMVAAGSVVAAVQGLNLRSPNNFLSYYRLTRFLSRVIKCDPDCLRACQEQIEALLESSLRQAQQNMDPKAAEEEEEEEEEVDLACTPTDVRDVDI
T1 sequence (P06493 whole entry): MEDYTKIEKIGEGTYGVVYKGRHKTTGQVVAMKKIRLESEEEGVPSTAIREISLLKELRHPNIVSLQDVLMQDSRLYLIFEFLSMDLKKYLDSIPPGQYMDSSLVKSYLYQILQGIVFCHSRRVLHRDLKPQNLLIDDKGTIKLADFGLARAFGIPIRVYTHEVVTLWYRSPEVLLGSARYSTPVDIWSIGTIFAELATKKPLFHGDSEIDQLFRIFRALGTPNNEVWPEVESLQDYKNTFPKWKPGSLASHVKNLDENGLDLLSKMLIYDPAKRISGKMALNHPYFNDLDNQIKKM
T1 sequence (P14635 whole entry partner): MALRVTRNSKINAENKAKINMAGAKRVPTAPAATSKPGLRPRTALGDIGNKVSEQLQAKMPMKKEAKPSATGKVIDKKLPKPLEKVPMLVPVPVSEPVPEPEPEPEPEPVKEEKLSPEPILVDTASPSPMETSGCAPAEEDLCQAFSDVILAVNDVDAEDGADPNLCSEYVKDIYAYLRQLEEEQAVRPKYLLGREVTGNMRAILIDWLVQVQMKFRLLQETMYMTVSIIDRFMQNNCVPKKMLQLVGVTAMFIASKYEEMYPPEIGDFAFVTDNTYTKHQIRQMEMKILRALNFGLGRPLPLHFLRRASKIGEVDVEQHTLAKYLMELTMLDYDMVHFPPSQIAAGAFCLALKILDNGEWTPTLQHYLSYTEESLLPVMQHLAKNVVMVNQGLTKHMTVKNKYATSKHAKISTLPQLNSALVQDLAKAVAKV
T5 sequence (P11802 whole entry): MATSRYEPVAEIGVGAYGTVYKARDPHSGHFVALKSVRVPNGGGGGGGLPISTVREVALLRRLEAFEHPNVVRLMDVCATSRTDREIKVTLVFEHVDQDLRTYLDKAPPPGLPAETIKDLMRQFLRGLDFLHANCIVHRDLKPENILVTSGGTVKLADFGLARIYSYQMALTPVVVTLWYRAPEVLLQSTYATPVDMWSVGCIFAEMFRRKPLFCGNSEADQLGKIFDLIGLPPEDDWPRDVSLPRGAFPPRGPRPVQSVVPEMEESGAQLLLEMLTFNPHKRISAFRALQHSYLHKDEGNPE
T5 sequence (P24385 whole entry partner): as the sequence (P24385 whole entry partner) above
T3 sequence (P49336 whole entry): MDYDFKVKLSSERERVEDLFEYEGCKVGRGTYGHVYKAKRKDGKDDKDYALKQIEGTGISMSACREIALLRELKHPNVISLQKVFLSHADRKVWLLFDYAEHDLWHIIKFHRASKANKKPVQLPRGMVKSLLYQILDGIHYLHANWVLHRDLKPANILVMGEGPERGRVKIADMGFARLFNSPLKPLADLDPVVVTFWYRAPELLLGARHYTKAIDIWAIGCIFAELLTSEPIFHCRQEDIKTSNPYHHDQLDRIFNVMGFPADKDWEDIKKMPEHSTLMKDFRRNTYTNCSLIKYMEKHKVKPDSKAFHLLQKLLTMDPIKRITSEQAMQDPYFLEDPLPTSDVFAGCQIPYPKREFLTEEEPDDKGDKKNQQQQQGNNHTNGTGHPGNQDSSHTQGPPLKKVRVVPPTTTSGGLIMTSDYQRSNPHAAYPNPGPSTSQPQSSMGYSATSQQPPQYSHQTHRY
T3 sequence (P24863 whole entry partner): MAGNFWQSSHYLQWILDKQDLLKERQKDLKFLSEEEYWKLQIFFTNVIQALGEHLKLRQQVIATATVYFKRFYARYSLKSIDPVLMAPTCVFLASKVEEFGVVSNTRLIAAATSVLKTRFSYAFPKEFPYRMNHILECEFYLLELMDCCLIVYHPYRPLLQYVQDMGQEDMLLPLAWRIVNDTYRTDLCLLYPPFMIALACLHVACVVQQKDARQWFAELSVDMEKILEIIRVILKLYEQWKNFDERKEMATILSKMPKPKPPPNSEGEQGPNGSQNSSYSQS
T7 sequence (P49841 whole entry): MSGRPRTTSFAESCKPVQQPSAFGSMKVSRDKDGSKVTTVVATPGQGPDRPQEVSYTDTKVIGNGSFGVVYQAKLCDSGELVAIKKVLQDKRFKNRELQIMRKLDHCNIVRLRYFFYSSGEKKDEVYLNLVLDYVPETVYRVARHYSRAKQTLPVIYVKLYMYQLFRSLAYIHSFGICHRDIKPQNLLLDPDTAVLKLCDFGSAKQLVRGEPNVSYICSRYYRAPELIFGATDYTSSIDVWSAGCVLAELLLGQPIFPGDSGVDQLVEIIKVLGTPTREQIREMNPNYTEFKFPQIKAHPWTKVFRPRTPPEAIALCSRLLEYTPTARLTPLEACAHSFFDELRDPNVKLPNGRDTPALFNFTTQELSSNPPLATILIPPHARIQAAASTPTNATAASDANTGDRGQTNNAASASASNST
T2 sequence (Q00535 whole entry): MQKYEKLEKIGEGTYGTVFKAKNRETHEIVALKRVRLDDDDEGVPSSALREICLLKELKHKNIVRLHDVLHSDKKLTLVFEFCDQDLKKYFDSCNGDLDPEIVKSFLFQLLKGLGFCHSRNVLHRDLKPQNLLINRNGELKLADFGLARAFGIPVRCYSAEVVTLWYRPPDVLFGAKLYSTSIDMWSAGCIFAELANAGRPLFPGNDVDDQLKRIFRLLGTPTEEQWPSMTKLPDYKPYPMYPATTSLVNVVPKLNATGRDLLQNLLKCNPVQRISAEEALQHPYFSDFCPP
T2 sequence (Q15078 99-307 partner limits assumed): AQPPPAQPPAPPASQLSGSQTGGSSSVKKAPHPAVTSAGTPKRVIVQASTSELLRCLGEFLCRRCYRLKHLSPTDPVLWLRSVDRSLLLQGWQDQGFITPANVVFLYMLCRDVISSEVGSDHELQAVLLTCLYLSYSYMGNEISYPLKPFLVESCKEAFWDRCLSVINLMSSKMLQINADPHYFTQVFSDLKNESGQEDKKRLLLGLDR

Compound: COc1ccc(CNc2nc(N(CCO)CCO)nc3c2ncn3C(C)C)cc1 [CVT-313, reference compound]
- CLL cell apoptosis with selective CDK inhibitors (primary CLL cells): did not lead to CLL cell apoptosis

Compound: CCc1cnn2c(NCc3ccc[n+]([O-])c3)cc(N3CCCC[C@H]3CCO)nc12 [Dinaciclib]
- overall response rate (relapsed/refractory CLL; patients with relapsed/refractory CLL): 54%

Compound: CN1CC[C@@H](c2c(O)cc(O)c3c(=O)cc(-c4ccc(C(F)(F)F)cc4Cl)oc23)[C@@H]1CO [P1446A]
- tumor growth in xenograft (H-460): restricted growth
- pIC50 (CDK1): 7.60
- pIC50 (CDK5): 6.68
- pIC50 (CDK8): 7.92
- pIC50 (CDK6): 6.68
- pIC50 (CDK4): 7.05
- pIC50 (CDK2): 6.74
- concentration range of inhibition in vitro [1]: nanomolar concentration range
- concentration range of inhibition in vitro (PIM kinase isoforms): nanomolar concentration range
- cells that underwent apoptosis (primary CLL cells; 0.5 μM, 24 hour incubation, N = 10, vehicle control 29.2±2.0%): 47.2±3.5%
- apoptosis of CLL cells (primary CLL cells; 1.5 μM, 24 hour incubation, N = 10): 83.3±3.3%
- number of kinases whose activity was inhibited by ≥60% [2]: 37
- tumor growth in xenograft (HCT-116): restricted growth

Compound: CC(=O)c1c(C)c2cnc(Nc3ccc(N4CCNCC4)cn3)nc2n(C2CCCC2)c1=O [PD0332991, reference compound]
- CLL cell apoptosis with selective CDK inhibitors (primary CLL cells): did not lead to CLL cell apoptosis

Compound: CN1CC[C@H](c2c(O)cc(O)c3c(=O)cc(-c4ccccc4Cl)oc23)[C@H](O)C1 [flavopiridol]
- patients with responses (relapsed/refractory CLL): 53%
